Test results reported in patent US12281149B2, “Modulators of G-protein coupled receptors” (priority 2021, dated 2025).
*1 amine or outer side, *2 acyl side, *3 side chain or, on linkers, in order; H or OH if unused. Where a SMILES comes first, the peptide text is derived from it. Side-chain parts run from the residue outwards. [ ]: non-standard residue; d: D form. The star is where a group is joined. Isobutyryl(2-(3-CN-5-F-Ph)) = CC(C)(C(=O)*)c1cc(F)cc(C#N)c1; Cyclopropanecarbonyl(1-Ph) = O=C(C1(c2ccccc2)CC1)*; C20 diacid = O=C(O)CCCCCCCCCCCCCCCCCCC(=O)*; γGlu = O=C(O)[C@H](CCC(=O)[*:2])N[*:1]; NMeβAla = CN(CCC(=O)[*:2])[*:1]; X61 = CC(C)(C(=O)*)c1ccccc1F; AEEA = NCCOCCOCC(=O)O; Aib = CC(C)(N)C(=O)O; Piv = CC(C)(C)C(=O)*; GABA = NCCCC(=O)O; βAla = NCCC(=O)O

Legend:
Assay type in all cases: cell-based
GIP receptor [1] = target: T1, GIP receptor (Homo sapiens, UniProt P48546); assay: HitHunter cAMP assay, GIP receptor; conditions: for EC50: CHO cells stably expressing GIP receptor, cAMP accumulation, 30 min, read-out: EC50 GIP-1R; for Emax: CHO cells, cAMP, normalized to maximum signal from GIP (high) and DMSO (low), read-out: Emax GIP-1R
T1 sequence (P48546 22-466): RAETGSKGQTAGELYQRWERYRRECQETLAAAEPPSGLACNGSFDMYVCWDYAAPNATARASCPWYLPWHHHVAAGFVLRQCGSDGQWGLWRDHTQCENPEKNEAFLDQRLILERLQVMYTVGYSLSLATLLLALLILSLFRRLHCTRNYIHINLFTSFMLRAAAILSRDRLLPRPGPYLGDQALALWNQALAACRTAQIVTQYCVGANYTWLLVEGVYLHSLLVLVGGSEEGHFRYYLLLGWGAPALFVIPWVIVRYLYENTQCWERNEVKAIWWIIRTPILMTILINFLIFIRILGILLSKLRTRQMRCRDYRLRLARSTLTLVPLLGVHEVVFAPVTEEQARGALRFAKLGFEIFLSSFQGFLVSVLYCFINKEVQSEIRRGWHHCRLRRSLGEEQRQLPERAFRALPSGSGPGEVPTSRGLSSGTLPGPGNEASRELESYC
Protocol: CAMP accumulation was measured in Chinese hamster ovary (CHO) cells stably expressing the human GLP-1 receptor or GIP receptor using the HitHunter CAMP Assay for Small Molecules Kit (Eurofins). Briefly, cells were grown in Ham's F12 Nutrient Mix with 10% FBS and lifted with Cell dissociation buffer, Enzyme free, PBS based (ThermoFisher). Cells were pelleted and resuspended in Hank's buffered saline solution with 10 mM Hepes and 625 μM 3-isobutyl-1-methylxanthine. The antibody reagent was then added to cells at a 1:2 ratio and 5 μL of mixture was seeded in 384-well small volume white assay plates, at 10,000 cells/well. Cells were then treated with 50 nl compound in DMSO using an ECHO 550 acoustic dispenser (Labcyte) in a 20-point dose response format in triplicate for 30 min. Cells were the lysed and detection reagents added according to the manufacturer's protocol. After overnight incubation, luminescence was measured using a Perkin Elmer Envision plate reader. Raw data was normalized to the maximum signal from GLP-1 or GIP (high) and DMSO (low). Dose response curves were analyzed using GraphPad Prism 9.0.

GLP-1 receptor [2] = target: T2, GLP-1 receptor (Homo sapiens, UniProt P43220); assay: HitHunter cAMP assay, GLP-1 receptor; conditions: for EC50: CHO cells stably expressing human GLP-1 receptor, cAMP accumulation, 30 min, read-out: EC50 GLP-1R; for Emax: CHO cells, cAMP, normalized to maximum signal from GLP-1 (high) and DMSO (low), read-out: Emax GLP-1R
T2 sequence (P43220 24-463): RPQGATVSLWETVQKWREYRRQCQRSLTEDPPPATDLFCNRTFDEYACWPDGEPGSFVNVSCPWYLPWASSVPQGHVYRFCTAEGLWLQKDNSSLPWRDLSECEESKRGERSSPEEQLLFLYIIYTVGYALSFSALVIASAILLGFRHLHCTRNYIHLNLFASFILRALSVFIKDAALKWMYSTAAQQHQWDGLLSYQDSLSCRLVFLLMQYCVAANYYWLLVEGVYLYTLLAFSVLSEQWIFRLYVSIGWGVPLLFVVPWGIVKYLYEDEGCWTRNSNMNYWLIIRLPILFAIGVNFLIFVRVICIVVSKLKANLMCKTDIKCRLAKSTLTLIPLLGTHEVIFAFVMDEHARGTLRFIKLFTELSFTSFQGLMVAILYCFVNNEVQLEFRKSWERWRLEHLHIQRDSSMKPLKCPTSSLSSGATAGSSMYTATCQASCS

GLP-1 receptor [3] = target: T2, GLP-1 receptor; assay: PathHunter β-arrestin assay, GLP-1 receptor; design: host or cells: PathHunter CHO-K1 GLP1R β-Arrestin Cell Line; conditions: β-arrestin-2 recruitment, PathHunter CHO-K1 GLP1R β-Arrestin Cell Line, 90 min at 37° C.; normalized to GLP-1; read-out: GLP-1R β Arrestin EC50
GIP receptor [4] = target: T1, GIP receptor; assay: PathHunter β-arrestin assay, GIP receptor; design: host or cells: PathHunter CHO-K1 GIPR β-Arrestin Cell Line; conditions: β-arrestin-2 recruitment, PathHunter CHO-K1 GIPR β-Arrestin Cell Line, 90 min at 37° C.; normalized to GIP; read-out: GIPR β Arrestin EC50

Compound | EC50 (GIP receptor [1]) | Emax (GIP receptor [1]) | EC50 (GLP-1 receptor [2]) | Emax (GLP-1 receptor [2]) | EC50 (GLP-1 receptor [3]) | EC50 (GIP receptor [4])
CC[C@H](C)[C@H](NC(=O)[C@H](CC(C)C)NC(=O)[C@H](Cc1c[nH]c2ccccc12)NC(=O)[C@H](CCC(N)=O)NC(=O)[C@@H](NC(=O)[C@H](Cc1ccccc1)NC(=O)[C@H](C)NC(=O)[C@H](CCCCNC(=O)COCCOCCNC(=O)COCCOCCNC(=O)CC[C@H](NC(=O)CCCCCCCCCCCCCCCCCCC(=O)O)C(=O)O)NC(=O)[C@H](CCC(N)=O)NC(=O)[C@H](C)NC(=O)[C@@H](NC(=O)[C@H](CCCCN)NC(=O)[C@H](CC(=O)O)NC(=O)[C@H](CC(C)C)NC(=O)C(C)(C)NC(=O)[C@@H](NC(=O)[C@H](CO)NC(=O)[C@H](Cc1ccc(O)cc1)NC(=O)[C@H](CC(=O)O)NC(=O)[C@H](CO)NC(=O)[C@@H](NC(=O)[C@H](Cc1ccccc1)NC(=O)[C@@H](NC(=O)CNC(=O)[C@H](CCC(=O)O)NC(=O)CCNC(=O)C(C)(C)C)[C@@H](C)O)[C@@H](C)O)[C@@H](C)CC)[C@@H](C)CC)C(C)C)C(=O)N[C@@H](C)C(=O)NCC(=O)NCC(=O)N1CCC[C@H]1C(=O)N[C@@H](CO)C(=O)N[C@@H](CO)C(=O)NCC(=O)N[C@@H](C)C(=O)N1CCC[C@H]1C(=O)N1CCC[C@H]1C(=O)N1CCC[C@H]1C(=O)N[C@@H](CO)C(N)=O [Compound 197] ({Piv-βAla}-EGTFTSDYSI[Aib]LDKIAQK([AEEA-AEEA-γGlu-C20 diacid])AFVQWLIAGGPSSGAPPPS-NH2) | 10 to 100 nM | 97% | 0.1 to 1 nM | 96% | > 1000 nM | > 1000 nM
CC[C@H](C)[C@H](NC(=O)[C@H](CC(C)C)NC(=O)[C@H](Cc1c[nH]c2ccccc12)NC(=O)[C@H](CCC(N)=O)NC(=O)[C@@H](NC(=O)[C@H](Cc1ccccc1)NC(=O)[C@H](C)NC(=O)[C@H](CCCCNC(=O)COCCOCCNC(=O)COCCOCCNC(=O)CC[C@H](NC(=O)CCCCCCCCCCCCCCCCCCC(=O)O)C(=O)O)NC(=O)[C@H](CCC(N)=O)NC(=O)[C@H](C)NC(=O)[C@@H](NC(=O)[C@H](CCCCN)NC(=O)[C@H](CC(=O)O)NC(=O)[C@H](CC(C)C)NC(=O)C(C)(C)NC(=O)[C@@H](NC(=O)[C@H](CO)NC(=O)[C@H](Cc1ccc(O)cc1)NC(=O)[C@H](CC(=O)O)NC(=O)[C@H](CO)NC(=O)[C@@H](NC(=O)[C@H](Cc1ccccc1)NC(=O)[C@@H](NC(=O)CNC(=O)[C@H](CCC(=O)O)NC(=O)CCNC(=O)C(C)(C)c1ccccc1F)[C@@H](C)O)[C@@H](C)O)[C@@H](C)CC)[C@@H](C)CC)C(C)C)C(=O)N[C@@H](C)C(=O)NCC(=O)NCC(=O)N1CCC[C@H]1C(=O)N[C@@H](CO)C(=O)N[C@@H](CO)C(=O)NCC(=O)N[C@@H](C)C(=O)N1CCC[C@H]1C(=O)N1CCC[C@H]1C(=O)N1CCC[C@H]1C(=O)N[C@@H](CO)C(N)=O [Compound 198] ({X61-βAla}-EGTFTSDYSI[Aib]LDKIAQK([AEEA-AEEA-γGlu-C20 diacid])AFVQWLIAGGPSSGAPPPS-NH2) | 1 to 10 nM | 102% | 0.1 to 1 nM | 99% | > 1000 nM | < 1000 nM
CC[C@H](C)[C@H](NC(=O)[C@H](CC(C)C)NC(=O)[C@H](Cc1c[nH]c2ccccc12)NC(=O)[C@H](CCC(N)=O)NC(=O)[C@@H](NC(=O)[C@H](Cc1ccccc1)NC(=O)[C@H](C)NC(=O)[C@H](CCCCNC(=O)COCCOCCNC(=O)COCCOCCNC(=O)CC[C@H](NC(=O)CCCCCCCCCCCCCCCCCCC(=O)O)C(=O)O)NC(=O)[C@H](CCC(N)=O)NC(=O)[C@H](C)NC(=O)[C@@H](NC(=O)[C@H](CCCCN)NC(=O)[C@H](CC(=O)O)NC(=O)[C@H](CC(C)C)NC(=O)C(C)(C)NC(=O)[C@@H](NC(=O)[C@H](CO)NC(=O)[C@H](Cc1ccc(O)cc1)NC(=O)[C@H](CC(=O)O)NC(=O)[C@H](CO)NC(=O)[C@@H](NC(=O)[C@H](Cc1ccccc1)NC(=O)[C@@H](NC(=O)CNC(=O)[C@H](CCC(=O)O)NC(=O)CCNC(=O)C1(c2ccccc2)CC1)[C@@H](C)O)[C@@H](C)O)[C@@H](C)CC)[C@@H](C)CC)C(C)C)C(=O)N[C@@H](C)C(=O)NCC(=O)NCC(=O)N1CCC[C@H]1C(=O)N[C@@H](CO)C(=O)N[C@@H](CO)C(=O)NCC(=O)N[C@@H](C)C(=O)N1CCC[C@H]1C(=O)N1CCC[C@H]1C(=O)N1CCC[C@H]1C(=O)N[C@@H](CO)C(N)=O [Compound 199] ({Cyclopropanecarbonyl(1-Ph)-βAla}-EGTFTSDYSI[Aib]LDKIAQK([AEEA-AEEA-γGlu-C20 diacid])AFVQWLIAGGPSSGAPPPS-NH2) | 10 to 100 nM | 102% | 1 to 10 nM | 100% | > 1000 nM | > 1000 nM
CC[C@H](C)[C@H](NC(=O)[C@H](CC(C)C)NC(=O)[C@H](Cc1c[nH]c2ccccc12)NC(=O)[C@H](CCC(N)=O)NC(=O)[C@@H](NC(=O)[C@H](Cc1ccccc1)NC(=O)[C@H](C)NC(=O)[C@H](CCCCNC(=O)COCCOCCNC(=O)COCCOCCNC(=O)CC[C@H](NC(=O)CCCCCCCCCCCCCCCCCCC(=O)O)C(=O)O)NC(=O)[C@H](CCC(N)=O)NC(=O)[C@H](C)NC(=O)[C@@H](NC(=O)[C@H](CCCCN)NC(=O)[C@H](CC(=O)O)NC(=O)[C@H](CC(C)C)NC(=O)C(C)(C)NC(=O)[C@@H](NC(=O)[C@H](CO)NC(=O)[C@H](Cc1ccc(O)cc1)NC(=O)[C@H](CC(=O)O)NC(=O)[C@H](CO)NC(=O)[C@@H](NC(=O)[C@H](Cc1ccccc1)NC(=O)[C@@H](NC(=O)CNC(=O)[C@H](CCC(=O)O)NC(=O)CCCNC(=O)C(C)(C)c1cc(F)cc(C#N)c1)[C@@H](C)O)[C@@H](C)O)[C@@H](C)CC)[C@@H](C)CC)C(C)C)C(=O)N[C@@H](C)C(=O)NCC(=O)NCC(=O)N1CCC[C@H]1C(=O)N[C@@H](CO)C(=O)N[C@@H](CO)C(=O)NCC(=O)N[C@@H](C)C(=O)N1CCC[C@H]1C(=O)N1CCC[C@H]1C(=O)N1CCC[C@H]1C(=O)N[C@@H](CO)C(N)=O [Compound 200] ({Isobutyryl(2-(3-CN-5-F-Ph))-GABA}-EGTFTSDYSI[Aib]LDKIAQK([AEEA-AEEA-γGlu-C20 diacid])AFVQWLIAGGPSSGAPPPS-NH2) | 10 to 100 nM | 102% | 0.1 to 1 nM | 104% | > 1000 nM | > 1000 nM
CC[C@H](C)[C@H](NC(=O)[C@H](CC(C)C)NC(=O)[C@H](Cc1c[nH]c2ccccc12)NC(=O)[C@H](CCC(N)=O)NC(=O)[C@@H](NC(=O)[C@H](Cc1ccccc1)NC(=O)[C@H](C)NC(=O)[C@H](CCCCNC(=O)COCCOCCNC(=O)COCCOCCNC(=O)CC[C@H](NC(=O)CCCCCCCCCCCCCCCCCCC(=O)O)C(=O)O)NC(=O)[C@H](CCC(N)=O)NC(=O)[C@H](C)NC(=O)[C@@H](NC(=O)[C@H](CCCCN)NC(=O)[C@H](CC(=O)O)NC(=O)[C@H](CC(C)C)NC(=O)C(C)(C)NC(=O)[C@@H](NC(=O)[C@H](CO)NC(=O)[C@H](Cc1ccc(O)cc1)NC(=O)[C@H](CC(=O)O)NC(=O)[C@H](CO)NC(=O)[C@@H](NC(=O)[C@H](Cc1ccccc1)NC(=O)[C@@H](NC(=O)CNC(=O)[C@H](CCC(=O)O)NC(=O)CCN(C)C(=O)C(C)(C)c1cc(F)cc(C#N)c1)[C@@H](C)O)[C@@H](C)O)[C@@H](C)CC)[C@@H](C)CC)C(C)C)C(=O)N[C@@H](C)C(=O)NCC(=O)NCC(=O)N1CCC[C@H]1C(=O)N[C@@H](CO)C(=O)N[C@@H](CO)C(=O)NCC(=O)N[C@@H](C)C(=O)N1CCC[C@H]1C(=O)N1CCC[C@H]1C(=O)N1CCC[C@H]1C(=O)N[C@@H](CO)C(N)=O [Compound 201] ({Isobutyryl(2-(3-CN-5-F-Ph))}-[NMeβAla]EGTFTSDYSI[Aib]LDKIAQK([AEEA-AEEA-γGlu-C20 diacid])AFVQWLIAGGPSSGAPPPS-NH2) | 100 to 1000 nM | 107% | 10 to 100 nM | 108% | > 1000 nM | > 1000 nM
